Drawing on patent US20200236933A1, “USE OF A NON-IONIC SURFACTANT WHICH IS A POLYOL DERIVATIVE AS A PLANT GROWTH STIMULATING AGENT OR AS AN ADJUVANT” (priority 2017, published 2020), this text covers Inhibitory diameter and germination rate for eight molecules.

Assay [1] relates to Aspergillus niger. Nature of the assay: Fungicide effect by antibiogram type method. Format: cell-based. The following applies: positive control. An excerpt:
In order to evaluate any impact of the sugar esters used according to the invention on microorganisms, the fungicide effect was searched for by an antibiogram type method. The method consists of: • spreading a solution contaminated with the mold Aspergillus niger on the surface of a Petri dish containing glucose gel growth medium with chloramphenicol. • arrange 4 sterile antibiogram disks of 6 mm diameter per Petri dish. • inoculate with 3 drops (0.071 g) of solution to test or control solution per disk. The dishes are next placed in the incubator at 25° C. for 5 days. Measurement of the inhibitory diameter is carried out every day.

Assay [2] relates to maize seeds. Nature of the assay: Germination of maize seeds, comparison of surfactants (Examples 13-19). The assay is classed as in vivo. The following applies: maize seeds immersed 1 h in 0.75% solution. As for the experimental part: The treatment of the maize seeds consists of immersing them 1 h in a solution comprising water alone (control batch) or in a solution composed of 98.25% water and 0.75% of a polyol derivative non-ionic surfactant (treated batch, Sub4). The seeds are next dried in a heating tunnel at 45° C. for one hour. Two batch repetitions of 16 seeds are deposited on Petri dishes containing a medium composed of 2% Agar Agar and 98% water. The Petri dishes are kept at ambient temperature and in darkness. Each day the number of seeds that have germinated (having a radicle) is counted. The treatment of the maize seeds consists of immersing them 1 h in a solution comprising water alone (control batch) or in a solution composed of 98.25% water and 0.75% of a polyol derivative non-ionic surfactant (treated batch, Sub1). The seeds are next dried in a heating tunnel at 45° C. for one hour. Two batch repetitions of 16 seeds are deposited on Petri dishes containing a medium composed of 2% Agar Agar and 98% water. The Petri dishes are kept at ambient temperature and in darkness. Each day the number of seeds that have germinated (having a radicle) is counted. The treatment of the maize seeds consists of immersing them 1 h in a solution comprising water alone (control batch) or in a solution composed of 98.25% water and 0.75% of a polyol derivative non-ionic surfactant (treated batch, Sub7). The seeds are next dried in a heating tunnel at 45° C. for one hour. Two batch repetitions of 16 seeds are deposited on Petri dishes containing a medium composed of 2% Agar Agar and 98% water. The Petri dishes are kept at ambient temperature and in darkness. Each day the number of seeds that have germinated (having a radicle) is counted. The treatment of the maize seeds consists of immersing them 1 h in a solution comprising water alone (control batch) or in a solution composed of 98.25% water and 0.75% of a polyol derivative non-ionic surfactant (treated batch, Sub2). The seeds are next dried in a heating tunnel at 45° C. for one hour. Two batch repetitions of 16 seeds are deposited on Petri dishes containing a medium composed of 2% Agar Agar and 98% water. The Petri dishes are kept at ambient temperature and in darkness. Each day the number of seeds that have germinated (having a radicle) is counted. The treatment of the maize seeds consists of immersing them 1 h in a solution comprising water alone (control batch) or in a solution composed of 98.25% water and 0.75% of a polyol derivative non-ionic surfactant (treated batch, Sub3). The seeds are next dried in a heating tunnel at 45° C. for one hour. Two batch repetitions of 16 seeds are deposited on Petri dishes containing a medium composed of 2% Agar Agar and 98% water. The treatment of the maize seeds consists of immersing them 1 h in a solution comprising water alone (control batch) or in a solution composed of 98.25% water and 0.75% of a polyol derivative non-ionic surfactant (treated batch, Sub6). The seeds are next dried in a heating tunnel at 45° C. for one hour. Two batch repetitions of 16 seeds are deposited on Petri dishes containing a medium composed of 2% Agar Agar and 98% water. The treatment of the maize seeds consists of immersing them 1 h in a solution comprising water alone (control batch) or in a solution composed of 98.25% water and 0.75% of a polyol derivative non-ionic surfactant (treated batch, Sub5). The seeds are next dried in a heating tunnel at 45° C. for one hour. Two batch repetitions of 16 seeds are deposited on Petri dishes containing a medium composed of 2% Agar Agar and 98% water. The Petri dishes are kept at ambient temperature and in darkness. Each day the number of seeds that have germinated (having a radicle) is counted.

As to `Fc1ccc([C@]2(Cn3cncn3)O[C@H]2c2ccccc2Cl)cc1` (racemic) [Epoxiconazole, reference compound], the Inhibitory diameter was 0 mm in assay [1] (D1); 32 mm in assay [1] (D2); 30 mm in assay [1] (D3); 30 mm in assay [1] (D4); 29 mm in assay [1] (D5).
Take `CCCCCCCCCCCC(=O)N(C)C[C@H](O)[C@@H](O)[C@H](O)[C@H](O)CO` [N-lauroyl-N-methyl glucamide]: the germination rate in assay [2] (D1) is recorded as 28%; in assay [2] (D2), 65%.
In the case of `CCCCCCCCCCO[C@@H]1O[C@H](CO)[C@@H](O)[C@H](O)[C@H]1O` [decyl glucoside, Decyl glucoside], the germination rate in assay [2] (D1) came out at 19%; in assay [2] (D2), 84%.
Taken in the same sequence, the figures for Glucose stearate were 34% and 78%.
The like results for Methylglucose dioleate were, in that order, 18% and 65%.
Consider Polyethoxylated sorbitan laurate, for which the germination rate was 25% in assay [2] (D1) and 78% in assay [2] (D2).
Taken in the same sequence, the figures for Sorbitan laurate were 31% and 78%.
With Sucrose palmitate, the germination rate worked out at 28% in assay [2] (D1) and 78% in assay [2] (D2).
